According to the supplement of paper PMC10307832:

What follows are cell lines tested with C=CCn1c(=O)c2cnc(Nc3ccc(N4CCN(C)CC4)cc3)nc2n1-c1cccc(C(C)(C)O)n1 [Adavosertib] (assay: relative viability (nuclei count vs DMSO), 5 days (fraction); higher = more cells survive). Conditions: 0.01 µM.
How it was run: (§1)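 Lung cancer cell lines in 1536-well plates were kept overnight at 37 °C, then pinned with five library-drug doses (not always all listed) spaced by √10 on vehicle-anchored plates. After 5 days without medium change, cells were fixed, permeabilised and Hoechst-stained in one step, imaged at 4×, and nuclei were counted with MetaXpress. Viability is treated-well nuclei divided by vehicle-well nuclei, taken as the median over plates. Plates passed only with control CV below 25% and at least one doubling.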
With NCI-H1734 the relative viability was 1.03. For NCI-H1755, the relative viability was 1.02. Cell Line NCI-H1792 has a relative viability of 0.749. Work on NCI-H1793 yielded a relative viability of 0.787. For NCI-H1915, the relative viability was 0.999. NCI-H1944 showed a relative viability of 0.953. For NCI-H1975, the relative viability was 0.971. With NCI-H1993 the relative viability was 0.9. NCI-H2009 gave a relative viability of 1.02. NCI-H2023 gave a relative viability of 0.892. Work on NCI-H2085 yielded a relative viability of 0.991. In the case of NCI-H2087, the relative viability is reported as 0.968. NCI-H2126 showed a relative viability of 1.01. For NCI-H2170, the relative viability was 1.03. Work on NCI-H2228 yielded a relative viability of 0.994. With NCI-H2347 the relative viability was 1.06. For NCI-H2405, the relative viability was 0.924. NCI-H3122 gave a relative viability of 0.987. In the case of PC-3 [JPC-3], the relative viability is reported as 1.04. PC-14 was tested, and the relative viability was 1.01. For RERF-LC-KJ, the relative viability was 1.01. Cell Line SK-LU-1 has a relative viability of 1.1. For SK-MES-1, the relative viability was 0.989. SW 1573 showed a relative viability of 0.99. For UMC-11, the relative viability was 0.973.

Same assay, conditions: 0.03162 µM
Work on NCI-H1734 yielded a relative viability of 0.972. For NCI-H1755, the relative viability was 0.998. Cell Line NCI-H1792 has a relative viability of 0.915. Cell Line NCI-H1793 has a relative viability of 0.835. With NCI-H1915 the relative viability was 1.01. NCI-H1944 showed a relative viability of 0.926. In the case of NCI-H1975, the relative viability is reported as 0.899. NCI-H1993 gave a relative viability of 0.996. Cell Line NCI-H2009 has a relative viability of 1.01. NCI-H2023 showed a relative viability of 0.87. For NCI-H2085, the relative viability was 1.01. For NCI-H2087, the relative viability was 0.95. NCI-H2126 showed a relative viability of 1.04. For NCI-H2170, the relative viability was 0.959. NCI-H2228 was tested, and the relative viability was 0.996. NCI-H2347 showed a relative viability of 1.05. NCI-H2405 was tested, and the relative viability was 0.993. Cell Line NCI-H3122 has a relative viability of 0.95. PC-3 [JPC-3] showed a relative viability of 1.04. In the case of PC-14, the relative viability is reported as 1.01. RERF-LC-KJ was tested, and the relative viability was 0.971. In the case of SK-LU-1, the relative viability is reported as 1.04. SK-MES-1 gave a relative viability of 1.01. SW 1573 was tested, and the relative viability was 1.03. With UMC-11 the relative viability was 0.943.

Same assay, conditions: 0.1 µM
Cell Line NCI-H1734 has a relative viability of 1. Work on NCI-H1755 yielded a relative viability of 0.958. Cell Line NCI-H1792 has a relative viability of 0.75. In the case of NCI-H1793, the relative viability is reported as 0.885. In the case of NCI-H1915, the relative viability is reported as 1.06. With NCI-H1944 the relative viability was 0.959. For NCI-H1975, the relative viability was 0.935. NCI-H1993 was tested, and the relative viability was 0.925. NCI-H2009 gave a relative viability of 1.07. NCI-H2023 gave a relative viability of 0.752. For NCI-H2085, the relative viability was 1. In the case of NCI-H2087, the relative viability is reported as 1.08. For NCI-H2126, the relative viability was 0.969. Cell Line NCI-H2170 has a relative viability of 0.888. With NCI-H2228 the relative viability was 0.946. NCI-H2347 was tested, and the relative viability was 1.09. Cell Line NCI-H2405 has a relative viability of 1.02. In the case of NCI-H3122, the relative viability is reported as 1.04. PC-3 [JPC-3] was tested, and the relative viability was 1.04. PC-14 gave a relative viability of 1.01. With RERF-LC-KJ the relative viability was 1.02. SK-LU-1 was tested, and the relative viability was 0.886. With SK-MES-1 the relative viability was 0.931. SW 1573 was tested, and the relative viability was 1.14. Cell Line UMC-11 has a relative viability of 1.

Same assay, conditions: 0.3162 µM
In the case of NCI-H1734, the relative viability is reported as 0.676. NCI-H1755 was tested, and the relative viability was 0.86. Work on NCI-H1792 yielded a relative viability of 0.895. Cell Line NCI-H1793 has a relative viability of 1.09. In the case of NCI-H1915, the relative viability is reported as 0.996. NCI-H1944 showed a relative viability of 0.807. In the case of NCI-H1975, the relative viability is reported as 0.759. NCI-H1993 was tested, and the relative viability was 1.1. Work on NCI-H2009 yielded a relative viability of 1.02. NCI-H2023 was tested, and the relative viability was 0.451. For NCI-H2085, the relative viability was 1.03. With NCI-H2087 the relative viability was 1.13. NCI-H2126 gave a relative viability of 1.07. With NCI-H2170 the relative viability was 0.819. Cell Line NCI-H2228 has a relative viability of 0.616. With NCI-H2347 the relative viability was 0.983. NCI-H2405 showed a relative viability of 1.04. NCI-H3122 gave a relative viability of 1.03. With PC-3 [JPC-3] the relative viability was 1.05. PC-14 was tested, and the relative viability was 0.605. In the case of RERF-LC-KJ, the relative viability is reported as 0.994. In the case of SK-LU-1, the relative viability is reported as 0.488. For SK-MES-1, the relative viability was 0.528. Work on SW 1573 yielded a relative viability of 0.965. Work on UMC-11 yielded a relative viability of 1.08.

The cell lines below were run with COc1nc(N)nc2c1ncn2[C@@H]1O[C@H](CO)[C@@H](O)[C@@H]1O [Nelarabine] in the same assay as above. Conditions: 0.01 µM.
How it was run: as §1
NCI-H1734 was tested, and the relative viability was 1.16. NCI-H1755 was tested, and the relative viability was 1.01. With NCI-H1792 the relative viability was 0.973. In the case of NCI-H1793, the relative viability is reported as 1.09. NCI-H1915 showed a relative viability of 1.15. NCI-H1944 gave a relative viability of 1.15. NCI-H1975 gave a relative viability of 1.21. NCI-H1993 gave a relative viability of 1.03. For NCI-H2009, the relative viability was 1.23. In the case of NCI-H2023, the relative viability is reported as 1.48. NCI-H2085 was tested, and the relative viability was 1. In the case of NCI-H2087, the relative viability is reported as 1.1. Cell Line NCI-H2126 has a relative viability of 1.08. In the case of NCI-H2170, the relative viability is reported as 1.16. With NCI-H2228 the relative viability was 1.17. NCI-H2347 showed a relative viability of 1.13. With NCI-H2405 the relative viability was 1.07. Work on NCI-H3122 yielded a relative viability of 1.1. With PC-3 [JPC-3] the relative viability was 1.08. PC-14 was tested, and the relative viability was 1.19. Work on RERF-LC-KJ yielded a relative viability of 1.18. SK-LU-1 showed a relative viability of 1.35. Cell Line SK-MES-1 has a relative viability of 1.15. For SW 1573, the relative viability was 1.13. Work on UMC-11 yielded a relative viability of 1.1.

Same assay, conditions: 0.03162 µM
Work on NCI-H1734 yielded a relative viability of 0.96. With NCI-H1755 the relative viability was 0.948. For NCI-H1792, the relative viability was 0.928. NCI-H1793 gave a relative viability of 0.775. Cell Line NCI-H1915 has a relative viability of 1.03. Work on NCI-H1944 yielded a relative viability of 0.984. Work on NCI-H1975 yielded a relative viability of 1.01. NCI-H1993 showed a relative viability of 0.863. NCI-H2009 gave a relative viability of 1.07. NCI-H2023 gave a relative viability of 1.05. For NCI-H2085, the relative viability was 1.04. Work on NCI-H2087 yielded a relative viability of 0.981. With NCI-H2126 the relative viability was 0.952. Work on NCI-H2170 yielded a relative viability of 0.912. For NCI-H2228, the relative viability was 0.991. For NCI-H2347, the relative viability was 0.904. With NCI-H2405 the relative viability was 1.02. Cell Line NCI-H3122 has a relative viability of 0.929. For PC-3 [JPC-3], the relative viability was 1.09. With PC-14 the relative viability was 0.99. Work on RERF-LC-KJ yielded a relative viability of 1.09. For SK-LU-1, the relative viability was 0.885. Work on SK-MES-1 yielded a relative viability of 1.09. With SW 1573 the relative viability was 1.04. With UMC-11 the relative viability was 0.821.

Same assay, conditions: 0.1 µM
With NCI-H1734 the relative viability was 0.997. Work on NCI-H1755 yielded a relative viability of 0.988. Work on NCI-H1792 yielded a relative viability of 1.16. With NCI-H1793 the relative viability was 1.1. NCI-H1915 showed a relative viability of 1.02. Cell Line NCI-H1944 has a relative viability of 1. Work on NCI-H1975 yielded a relative viability of 1.14. With NCI-H1993 the relative viability was 1.02. With NCI-H2009 the relative viability was 1. Cell Line NCI-H2023 has a relative viability of 0.97. With NCI-H2085 the relative viability was 0.963. NCI-H2087 showed a relative viability of 1.05. In the case of NCI-H2126, the relative viability is reported as 0.961. NCI-H2170 gave a relative viability of 0.956. NCI-H2347 gave a relative viability of 1.04. For NCI-H2405, the relative viability was 0.924. Work on PC-3 [JPC-3] yielded a relative viability of 1.14. Work on PC-14 yielded a relative viability of 1.21. Cell Line RERF-LC-KJ has a relative viability of 1.06. SK-LU-1 gave a relative viability of 1.1. SK-MES-1 showed a relative viability of 1.01. SW 1573 was tested, and the relative viability was 0.995. Work on UMC-11 yielded a relative viability of 0.987.

Same assay, conditions: 0.3162 µM
NCI-H1734 showed a relative viability of 1.02. For NCI-H1755, the relative viability was 1.1. In the case of NCI-H1792, the relative viability is reported as 1.06. In the case of NCI-H1793, the relative viability is reported as 1.09. NCI-H1915 showed a relative viability of 1. NCI-H1944 was tested, and the relative viability was 0.987. For NCI-H1975, the relative viability was 1.17. In the case of NCI-H1993, the relative viability is reported as 0.959. With NCI-H2009 the relative viability was 1.02. NCI-H2023 was tested, and the relative viability was 1.02. Work on NCI-H2085 yielded a relative viability of 0.995. NCI-H2087 gave a relative viability of 1.22. NCI-H2126 showed a relative viability of 1.03. Cell Line NCI-H2170 has a relative viability of 1.07. NCI-H2228 was tested, and the relative viability was 1.35. NCI-H2347 gave a relative viability of 1.02. With NCI-H2405 the relative viability was 0.982. NCI-H3122 gave a relative viability of 1.06. For PC-3 [JPC-3], the relative viability was 1.06. PC-14 gave a relative viability of 1.07. Cell Line RERF-LC-KJ has a relative viability of 1.07. SK-LU-1 gave a relative viability of 1.2. For SK-MES-1, the relative viability was 1.09. Cell Line SW 1573 has a relative viability of 1.05. UMC-11 showed a relative viability of 1.07.

Same assay, conditions: 1 µM
For NCI-H1734, the relative viability was 1.05. In the case of NCI-H1755, the relative viability is reported as 1.1. NCI-H1792 was tested, and the relative viability was 0.855. NCI-H1793 was tested, and the relative viability was 1. In the case of NCI-H1915, the relative viability is reported as 1.05. For NCI-H1944, the relative viability was 0.869. With NCI-H1975 the relative viability was 1.04. NCI-H1993 showed a relative viability of 0.987. NCI-H2009 was tested, and the relative viability was 1.03. NCI-H2023 was tested, and the relative viability was 0.851. NCI-H2085 showed a relative viability of 0.958. Work on NCI-H2087 yielded a relative viability of 0.881. With NCI-H2126 the relative viability was 0.988. NCI-H2170 was tested, and the relative viability was 1. NCI-H2228 showed a relative viability of 0.948. NCI-H2347 showed a relative viability of 1.01. In the case of NCI-H2405, the relative viability is reported as 0.947. NCI-H3122 gave a relative viability of 1.05. PC-3 [JPC-3] showed a relative viability of 1.06. PC-14 gave a relative viability of 1.03. RERF-LC-KJ was tested, and the relative viability was 1.02. SK-LU-1 was tested, and the relative viability was 1.18. With SK-MES-1 the relative viability was 1.04. Cell Line SW 1573 has a relative viability of 0.979.
